Measurements taken from patent publication US8669315B2, “Polycarbonate compositions and methods for the manufacture and use thereof” (SABIC Innovative Plastics IP B.V., priority 2011, dated 2014).

Columns and labels:
[1] = biological target: T1, recombinant human estradiol receptors (rhER) alpha (α) (Homo sapiens, UniProt P03372); assay: in vitro competitive binding assay, displacement of [3H]estradiol from rhER alpha; details: running text, highest concentration 2.5×E−4 M
T1 sequence (P03372 1-595): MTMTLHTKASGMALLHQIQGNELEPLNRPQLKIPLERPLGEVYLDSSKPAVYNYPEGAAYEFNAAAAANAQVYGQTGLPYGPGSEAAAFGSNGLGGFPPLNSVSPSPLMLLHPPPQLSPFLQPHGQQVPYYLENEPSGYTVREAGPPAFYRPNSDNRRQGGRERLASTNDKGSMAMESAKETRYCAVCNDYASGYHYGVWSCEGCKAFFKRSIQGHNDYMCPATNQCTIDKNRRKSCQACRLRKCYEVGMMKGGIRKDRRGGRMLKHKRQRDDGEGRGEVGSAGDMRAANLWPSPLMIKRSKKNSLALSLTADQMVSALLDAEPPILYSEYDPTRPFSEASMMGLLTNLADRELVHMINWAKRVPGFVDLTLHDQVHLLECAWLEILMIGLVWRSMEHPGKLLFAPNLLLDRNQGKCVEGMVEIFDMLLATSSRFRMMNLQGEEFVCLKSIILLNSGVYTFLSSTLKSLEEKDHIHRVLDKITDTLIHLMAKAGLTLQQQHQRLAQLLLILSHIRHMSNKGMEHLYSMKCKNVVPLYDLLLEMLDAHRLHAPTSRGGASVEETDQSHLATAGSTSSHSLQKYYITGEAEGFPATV

[2] = biological target: recombinant human estradiol receptors (rhER) beta 1 (β1) (Homo sapiens, UniProt Q92731); assay: in vitro competitive binding assay, displacement of [3H]estradiol from rhER beta 1; details: highest concentration 2.5×E−4 M

## CC(C)(c1ccccc1)c1ccc(O)cc1 [B, p-Cumyl Phenol, reference compound]
[1]
  estradiol binding / displacement at the alpha estradiol receptor (in words): displace estradiol
[2]; running text
  estradiol binding / displacement at the beta estradiol receptor (in words): displace estradiol

## Oc1ccc(Oc2ccc(O)cc2)cc1 [C, Dihydroxy Diphenyl Ether, reference compound]
[2]; running text
  estradiol binding / displacement at the beta estradiol receptor (in words): displace estradiol

## CC(c1ccccc1)(c1ccc(O)cc1)c1ccc(O)cc1 [D, Bisphenol Acetophenone, reference compound]
[1]
  estradiol binding / displacement at the alpha estradiol receptor (in words): displace estradiol

## O=C1c2ccccc2C(c2ccc(O)cc2)(c2ccc(O)cc2)N1c1ccccc1 [Example 4, N-Phenyl Phenolphthalein Bisphenol]
[1]
  estradiol binding / displacement at the alpha estradiol receptor (in words): no detectible estradiol displacement
[1]; listed as N-phenyl phenolphthalein bisphenol
  estradiol binding / displacement at the alpha estradiol receptor (in words): no estradiol binding
[2]; running text
  estradiol binding / displacement at the beta estradiol receptor (in words): no detectible estradiol displacement
[2]; running text, listed as N-phenyl phenolphthalein bisphenol
  estradiol binding / displacement at the beta estradiol receptor (in words): no estradiol binding

## Oc1cccc(O)c1 [Example 5, Resorcinol]
[1]
  estradiol binding / displacement at the alpha estradiol receptor (in words): no detectible estradiol displacement
[1]; listed as resorcinol
  estradiol binding / displacement at the alpha estradiol receptor (in words): no estradiol binding
[2]; running text
  estradiol binding / displacement at the beta estradiol receptor (in words): no detectible estradiol displacement
[2]; running text, listed as resorcinol
  estradiol binding / displacement at the beta estradiol receptor (in words): no estradiol binding

## Cc1cc(O)ccc1O [Example 9, Methyl Hydroquinone]
[2]; running text
  estradiol binding / displacement at the beta estradiol receptor (in words): no alpha or beta estradiol displacement
[2]; running text, listed as methyl hydroquinone
  estradiol binding / displacement at the beta estradiol receptor (in words): no estradiol binding

## COC(=O)CCC(C)(c1ccc(O)cc1)c1ccc(O)cc1 [F, Diphenolic Acid Methyl Ester, reference compound]
[1]
  estradiol binding / displacement at the alpha estradiol receptor (in words): displace estradiol
[2]; running text
  estradiol binding / displacement at the beta estradiol receptor (in words): displace estradiol

## Cc1cc(C2(c3ccc(O)c(C)c3)CCCCC2)ccc1O [H, Dimethyl Cyclohexyl Bisphenol, reference compound]
[1]
  estradiol binding / displacement at the alpha estradiol receptor (in words): displacement of estradiol
[2]; running text
  estradiol binding / displacement at the beta estradiol receptor (in words): displacement of estradiol

## CC(C)(c1ccc(O)cc1)c1cccc(C(C)(C)c2ccc(O)cc2)c1 [L, Bisphenol M, reference compound]
[1]
  estradiol binding / displacement at the alpha estradiol receptor (in words): displace estradiol at low concentrations
[2]; running text
  estradiol binding / displacement at the beta estradiol receptor (in words): displace estradiol at low concentrations

## O=C1OC(c2ccc(O)cc2)(c2ccc(O)cc2)c2ccccc21 [P, Phenolphthalein, reference compound]
[2]; running text
  estradiol binding / displacement at the beta estradiol receptor (in words): estradiol displacement at low concentration

## Biphenol [Example 7]
[1]
  estradiol binding / displacement at the alpha estradiol receptor (in words): no displacement
[1]; listed as biphenol
  estradiol binding / displacement at the alpha estradiol receptor (in words): no estradiol binding
[2]; running text
  estradiol binding / displacement at the beta estradiol receptor (in words): no estradiol binding

## Bis Hydroxy Phenyl Menthane [reference compound]
[1]
  estradiol binding / displacement at the alpha estradiol receptor (in words): displace estradiol at low concentrations
[2]; running text
  estradiol binding / displacement at the beta estradiol receptor (in words): displace estradiol at low concentrations

## Fluorenone Bis o-Cresol [J, reference compound]
[2]; running text
  estradiol binding / displacement at the beta estradiol receptor (in words): displace estradiol at low concentrations

## Tetra Methyl BPA [Example 2]
[2]; listed as tetra methyl bisphenol-A
  estradiol binding / displacement at the beta estradiol receptor (in words): no estradiol binding
[2]; running text
  estradiol binding / displacement at the beta estradiol receptor (in words): no detectible estradiol displacement
